From article PMC10920779, “Targeting P2Y14R protects against necroptosis of intestinal epithelial cells through PKA/CREB/RIPK1 axis in ulcerative colitis” (Nature Communications, 2024)
Where “and” joins values, the source holds several entries; their conditions need not be identical. Identical values can stand only once.

What was measured:
HT-29 cells = test: Cytotoxicity by CCK8 analysis in HT-29 cells; assay type: cell-based, human
Protocol: (§1) Necroptosis was induced by pretreatment with TNF‐α (20 ng·mL^−1) plus z‐VAD‐fmk (20 μM) and Smac mimetic (BV6, 2 μM) for 8 h, then stained cells with hematoxylin/eosin. For PI/Hoechst staining, cells were stained with PI and Hoechst for 20 min, then photographed with a fluorescence microscope and at least 300 cells were counted. The ratio of PI positive cells (%) = (PI positive cells) / (Hoechst positive cells) × 100%. For cell viability assay, CCK8 was added to the well and incubated for 1 − 2 h and then OD450 was measured using a multi-mode microplate reader (Cytation5, BioTek).

[1] = Cytotoxicity by CCK8 analysis in HT-29 cells; assay type: cell-based, human; conditions: human, HT-29 cells, read-out: Cell viability (%)
Protocol: as §1

[2] = design: method as in PMID 24138077; conditions: cited from earlier work

Compound | Cell viability (%) (HT-29 cells; 1 nm) | Cell viability (%) (HT-29 cells; 1 μm) | Cell viability (%) (HT-29 cells; 10 nm) | Cell viability (%) (HT-29 cells; 10 μm) | Cell viability (%) (HT-29 cells; 100 nm) | Cytotoxicity in HT-29 cells (HT-29 cells; CCK8, 12 h, under the concentration of 10 μM) | viability at 12 h, 1 nM ([1]; 1 nm) [%] | viability at 12 h, 1 µM ([1]; 1 μm) [%] | viability at 12 h, 10 µM ([1]; 10 μm) [%] | viability at 12 h, 100 nM ([1]; 100 nm) [%] | Solubility [2]
Brc1ccc(NCc2nc3ccccc3o2)cc1 [HDL-16] | 114 | 116 | 95% and 93% and 119% and 111% | 115% and 106% and 113% | 110% and 99% | almost no cytotoxicity | 108 | 117 | 103 | 109 | 
O=C(O)c1cc(-c2ccc(C3CCNCC3)cc2)c2ccc(-c3ccc(C(F)(F)F)cc3)cc2c1 [PPTN, reference compound] |  |  |  |  |  |  |  |  |  |  | poor solubility
